Entries after “also recorded” stand apart in the source; their conditions may differ.
B1: BMP4: gliogenic molecule, bone morphogenetic protein (protein, UniProt P12644 293-408, looked up)
Bone morphogenetic protein 4: SPKHHSQRARKKNKNCRRHSLYVDFSDVGWNDWIVAPPGYQAFYCHGDCPFPLADHLNSTNHAIVQTLVNSVNSSIPKACCVPTELSAISMLYLDEYDKVVLKNYQEMVVEGCGCR

Assays:
Format in all cases: cell-based, human
LTNSCs = experiment: Differentiation of LTNSCs or neural rosettes (no NFIA induction) in media containing gliogenic molecules; details: short term, 14 days, no NFIA induction (FIG. 2B)
Protocol: These cells were also TUJ1 negative implying their homogenous nature of being nearly 100% neural stem cells (FIG. 2A). […] In the FBS condition, the expression of gliogenic factors was assessed and expression of SOX9 and NFIA was more enriched when cultured with FBS compared to the other treatments (FIG. 3).
(§1) For immunohistochemistry, cells were fixed in PBS containing 4% paraformaldehyde (EMS) for 10 minutes and permeabilized using PBS with 0.5% Triton-X for 5 minutes and stored in PBS with 0.2% Tween-20. The blocking solution contained 5% donkey serum in PBS with 0.2% Tween-20. Primary antibodies were diluted in the blocking solution and typically incubated overnight at 4 C. Secondary antibodies conjugated to Alexa 488, Alexa 555 or Alexa 647 (Thermo) were added to the cells and incubated for 30 minutes. Nuclei were identified by staining the cells with 4′,6-diamidino-2-phenylindole (DAPI, Thermo).

NFIA-induced LTNSCs = experiment: Astrocyte differentiation of NFIA-induced LTNSCs after doxycycline removal with glial differentiation factors; details: for expression of GFAP after removing the expression of NFIA: NFIA exposed cells, especially in the absence of FGF2 (FIG. 4C)
Protocol: Typically, regionally patterned neural stem cells are infected with lentiviral particles containing FUW-NFIA and FUW-M2-rtTA and induced with doxycycline (dox) one day after infection. Cells are kept in dox media for a minimum of 5 days and then switched to the astrocyte induction media (N2 media with 10 ng/ml HB-EGF (R&D Systems) and 10 ng/ml Leukemia inhibitory factor (Peprotech)) without dox for a minimum of 5 days. Glial progenitors and astrocytes can be isolated using CD44.
as §1

neurogenic NSCs [1] = experiment: Cell cycle analysis by FACS on NSCs treated with TGFβ1; details: TGFβ1 for 48 hours, FACS (FIG. 12L)
Protocol: Cells were dissociated nuclei were isolated for cell cycle analysis. Propidium Iodine (250 ng/ml) was added to the cells and analyzed by FACS. A minimum of 10,000 events was analyzed per condition. Data acquired was imported and analyzed by the Flowjo software.

neurogenic NSCs [2] = experiment: Immunofluorescence for NFIA and GFAP after TGFβ treatment followed by LIF medium; details: TGFβ followed by LIF-containing medium for 2 weeks (FIG. 12M)
Protocol: as §1

neurogenic NSCs [3] = experiment: Western blot analysis of NFIA in NSCs treated with TGFβ1; details: TGFβ1 for 7 days, Western blot (FIG. 12K)

Row | Molecule | fate of LTNSCs: neurons (TUJ1/βIII-Tubulin) versus GFAP+ astrocytes (LTNSCs) | GFAP expression (quantitative PCR) (NFIA-induced LTNSCs; 5 days dox then dox removal, +LIF versus +EGF/FGF2 (FIG. 10E)) | efficiency of astrocyte differentiation (GFAP+ cells, AQP4-H2B-GFP reporter) after dox removal (NFIA-induced LTNSCs; LIF compared with BMP4 or FBS) | expression of GFAP after removing the expression of NFIA (NFIA-induced LTNSCs) | cells in the G1 phase of the cell cycle (neurogenic NSCs [1]) | appearance of GFAP+ cells (neurogenic NSCs [2]) | expression of NFIA (neurogenic NSCs [3])
1 | LIF: leukemia inhibitory factor, glial-promoting factor | became neurons rather than GFAP+ astrocytes; also recorded: increased expression of the neuronal marker TUJ1 rather than the astrocyte marker GFAP | strongly induced | most efficient in generating GFAP+ cells and activating the AQP4-H2B-GFP reporter | enhanced the expression of GFAP |  |  | 
2 | TGFβ1: upstream activator of NFIA; transforming growth factor beta |  |  |  |  | enriched for cells in the G1 phase of the cell cycle | resulted in the appearance of GFAP+ cells | induced the expression of NFIA
3 | B1 | became neurons rather than GFAP+ astrocytes; also recorded: increased expression of the neuronal marker TUJ1 rather than the astrocyte marker GFAP |  |  | enhanced the expression of GFAP |  |  | 

— patent publication US20200024574A1, “STEM CELL-DERIVED ASTROCYTES, METHODS OF MAKING AND METHODS OF USE” (MEMORIAL SLOAN-KETTERING CANCER CENTER, priority 2017, published 2020)
